Reference: patent US20160025717A1, “HYPOSIALYLATION DISORDERS” (THE UNITED STATES OF AMERICA, AS REPRESENTED BY THE …, priority 2013, published 2016)

Test system: GNE myopathy patients
Experiment: Plasma T/ST ratio (T-antigen to monosialylated ST-antigen) by LC-MS/MS in treated GNE myopathy patients
Type: in vivo, human
Method: The quantification of the T/ST ratio was carried out using the O-glycan quantification methods disclosed in Liu et al., Mol Genet Metab 106, 442-454 (2012). Briefly, O-linked glycans from human serum or plasma total glycoproteins were released by sodium hydroxide with sodium borohydrate and desalted by ion-exchange column and then permethylated before the quantity of T-antigen and monosialyl ST-antigen was measured using LC-MS/MS method. Plasma samples from 40 normal controls were used to establish the normal range for the T/ST ratio at <0.056. A cut-off of 0.06 was used to diagnose hyposialylation of O-linked protein glycosylation in human plasma or serum.
O-glycans were released from plasma glycoproteins and prepared for analysis essentially as described by Carlson (J Biol Chem 243: 616-626, 1968; Liu et al. Mol Genet Metab 2012, 106, 442-454 (2012)), with modifications as described. An internal standard (1250 pmol raffinose in 5 μL) was added to 10 μL of plasma and […] for a final volume of 100 μL. Next, 100 μL of freshly prepared 2M […] in 0.1M sodium hydroxide was added to denature the serum proteins and release the O-glycans; the mixture was incubated at 45° C. for 16 hours to ensure complete reaction. The reaction was neutralized by drop wise addition of 1.6 mL of a 0.25M acetic acid-methanol solution, and the O-glycans were extracted in methanol. Finally, the extracted glycans were desalted through ion-exchange AG 50W-X8 resin (Bio-Rad, Hercules, Calif.) following the manufacture's instruction and lyophilized overnight. The dried samples were dissolved in DMSO for permethylation.
Both N-glycans and O-glycans were permethylated as previously described with minor modification (Guillard et al. Clin Chem 57, 593-602 (2011)). Briefly, four NaOH pellets (approximately 375 mg) were crushed in 10 ml anhydrous DMSO, 0.5 μL water, 0.4 ml of this slurry and 0.1 ml CH3I were added to the dried glycans and the mixture was shaken vigorously for one hour. The mixture was extracted five times sequentially with a mixture of 200 μL water and 600 μL chloroform. […]

CC(=O)N[C@@H]1C(O)C[C@](O)(C(=O)O)OC1[C@H](O)[C@H](O)CO (stereo in doubt) [sialic acid, 5-N-acetylneuraminic acid]
T/ST ratio (GNE myopathy patient NH00016, after three months without medication (after sialic acid)): 0.7 | T/ST ratio (GNE myopathy patient NH00016, had received sialic acid one month before the test): 0.05

CC(=O)N[C@H]1[C@@H](O)[C@H](O)[C@@H](CO)O[C@H]1O [ManNAc, N-acetyl-D-mannosamine]
T/ST ratio (GNE myopathy patient SIA79 self-administering off-label ManNAc, cut-off 0.06): normal range
